Patent US20250002435A1, “ARYLATED FENCHONE DERIVATIVES, COMPOSITIONS COMPRISING THEM, PROCESSES FOR THEIR PREPARATION AND USES THEREOF” (priority 2021, published 2025)

Tests used:
[1] = system: medial meniscal tear (MMT) post-traumatic OA; assay: rat medial meniscal tear (MMT) model, body weight and dynamic weight bearing; assay type: in vivo
Description: Initially, the required amount of HU308 dissolved in ethanol followed by addition of […] with vigorous mechanical agitation to form viscous micelle solution. Finally, the micelle solution was diluted in ice cold saline for injection or culture assays. Vehicle solution consisted of ethanol, cremophor and saline at 1:1:18 ratio. For intra-articular (IA) dosing 50 μL was injected into the tibiofemoral joint, at two doses; 8 and 24 μg/mL. Vehicle control contained 1:1:18 ethanol/Cremophor/saline, while positive control was of IA administered 60 μg/mL FGF-18 (R&D Systems, catalogue No. 8988-F18-050, lot No. BVE0521071) for IA dosing at 50 μL/knee.
(§1) The rat OA model employed was surgically-induced medial meniscal tear (MMT), wherein rats were anesthetized with Isoflurane (VetOne, catalogue No. 502017), and the right knee area was prepared for surgery. A skin incision was made over the medial aspect of the knee, and the medial collateral ligament was exposed by blunt dissection and then transected. The medial meniscus was cut through the full thickness to simulate a complete tear. Skin and subcutis were closed with 4-0 Coated Vicryl (polyglactin 910) Violet Braided Suture (Ethicon, catalogue No. J399H), and slight hand pressure was applied to the wound for approximately 3 minutes for hemostasis. Subcutaneous (SC) dose of buprenorphine (0.05 mg/kg) administered after the animal awakened post-surgery. Rats were weighed daily on study days −1 through 7 and again on days 14, 21, and 28 (prior to necropsy). […] The animals were euthanized for necropsy 28 days post-surgery, following Isoflurane anesthesia, and bled to exsanguination followed by bilateral pneumothorax.

[2] = system: medial meniscal tear (MMT) post-traumatic OA; assay: rat MMT model, histopathology of medial tibial joint 28 days post MMT; assay type: in vivo; conditions: for osteophyte measurements and scores: vs vehicle
Description: as §1
Right knees were collected from all animals and trimmed of muscle and patellae. The trimmed joints were placed in 10% neutral buffered formalin (NBF) for histologic processing and evaluation. Samples were fixed for 3 days in 4% paraformaldehyde and decalcified for 21 days in 10% EDTA, pH=7.5. Then following dehydration in a graded series of ethanol washes, joints were embedded in paraffin and sectioned to 7 μm slices, following trimming off 1 mm until the tibiofemoral compartments are fully observed. Sections were obtained from each knee and stained with toluidine blue (0.04% in 0.2 M acetate buffer, Ph=4.0), based on a modified version of the methods used in Schmitz, et al. (2010), (11). Histopathology was carried out using an ocular micrometer. The following structural histological characterization was carried out:
Regional differences across the tibial plateau were taken into consideration by dividing each section into three zones: (1) outside, (2) middle, and (3) inside. In the surgical OA model, the outside (zone-1) and middle (zone-2) thirds are most severely affected, and milder changes are present on the inside third (zone 3). When zones were scored individually, scores were assigned based on percent area of the zone affected. General cartilage degeneration including chondrocyte death/loss, proteoglycan (PG) loss, and collagen loss or fibrillation. Zones were scored individually (0-5; 5 representing sever damage; SD3), and a sum of all three zones was calculated (termed “Total Joint scores”).
The zone related cartilage depth is calculated from the projected articular surface tot the tidemark. Reduced ratios embody less detected cartilage width vs projected cartilage with area, per zone.
Osteophyte thickness (tidemark to furthest point extending toward synovium) was measured and scored according to a range from 0-5, as in SD4.
Damage to the calcified cartilage layer and subchondral bone was scored using the criteria in SD5. Generally damage was considered as invagination of deep zone cartilage into the subchondral bone layer.
[…] Descriptions of other changes (typically fibrosis, or acute inflammation/neutrophil infiltration extending into the lateral compartment usually associated with IA treatments) were also provided, if present.

CCCCCCC(C)(C)c1cc(OC)c([C@]2(O)C3(C)CCC(C3)C2(C)C)c(OC)c1 (stereo partly shown) [Compound 1d, 2-(2,6′-dimethoxy-4′-(2″-methyloctan-2″-yl)phenyl)-1,3,3-trimethyl-bicyclo[2.2.1]heptan-2-ol]
dynamic weight bearing, left to right load bearing ([1]; 1D high dose 24 μg/mL IA): statistically insignificant levels vs sham and vehicle | change in rat weight from 4 days to 28 days post MMT ([1]; 1D high dose 24 μg/mL IA, vs Vehicle and FGF18 groups): slight but significant increase | dynamic weight bearing, left to right load bearing ([1]; 1D low dose 8 μg/mL IA): increased left to right lad bearing vs sham | mean zonal depth ratios ([2]; 1D high dose 24 μg/mL IA): reduced depth ratios | zone 3 cartilage degeneration score ([2]; 1D high dose 24 μg/mL IA): less degeneration scores which were statistically significant | total zonal cartilage degeneration scores ([2]; 1D high dose 24 μg/mL IA, vs 1D low dose and Vehicle): significantly reduced degenerative scores | osteophyte measurements and scores ([2]; 1D high dose 24 μg/mL IA): didn't display any differences | synovitis scores ([2]; 1D low dose 8 μg/mL IA): higher | zone 3 cartilage degeneration score ([2]; 1D low dose 8 μg/mL IA): less degeneration scores which were statistically significant | osteophyte measurements and scores ([2]; 1D low dose 8 μg/mL IA): didn't display any differences
